Consider 23 molecules from patent publication US11214565B2, “Compound, compositions, and methods” (Denali Therapeutics Inc., priority 2015, dated 2022).

As a reminder, the IC50 is the point on the concentration scale where inhibition reaches its midpoint.

Where only a bound is given, the exact number is not on record here.

For this assay, the target named is LRRK2 G2019S enzyme (Homo sapiens (Human), UniProt Q5S007, G2019S). Put plainly: LRRK2 G2019S TR-FRET biochemical kinase assay (LRRKtide substrate). The note with it: Table A-2; 5 nM LRRK2, 134 μM ATP, 60 minute reaction, 23° C. The protocol: LRRK2 G2019S enzyme, Substrate (LRRKtide), ATP, TR-FRET dilution buffer, pLRRKtide antibody, 384-well assay plate, and DMSO.
LRRK2 G2019S enzyme, sequence (Q5S007 whole entry G2019S): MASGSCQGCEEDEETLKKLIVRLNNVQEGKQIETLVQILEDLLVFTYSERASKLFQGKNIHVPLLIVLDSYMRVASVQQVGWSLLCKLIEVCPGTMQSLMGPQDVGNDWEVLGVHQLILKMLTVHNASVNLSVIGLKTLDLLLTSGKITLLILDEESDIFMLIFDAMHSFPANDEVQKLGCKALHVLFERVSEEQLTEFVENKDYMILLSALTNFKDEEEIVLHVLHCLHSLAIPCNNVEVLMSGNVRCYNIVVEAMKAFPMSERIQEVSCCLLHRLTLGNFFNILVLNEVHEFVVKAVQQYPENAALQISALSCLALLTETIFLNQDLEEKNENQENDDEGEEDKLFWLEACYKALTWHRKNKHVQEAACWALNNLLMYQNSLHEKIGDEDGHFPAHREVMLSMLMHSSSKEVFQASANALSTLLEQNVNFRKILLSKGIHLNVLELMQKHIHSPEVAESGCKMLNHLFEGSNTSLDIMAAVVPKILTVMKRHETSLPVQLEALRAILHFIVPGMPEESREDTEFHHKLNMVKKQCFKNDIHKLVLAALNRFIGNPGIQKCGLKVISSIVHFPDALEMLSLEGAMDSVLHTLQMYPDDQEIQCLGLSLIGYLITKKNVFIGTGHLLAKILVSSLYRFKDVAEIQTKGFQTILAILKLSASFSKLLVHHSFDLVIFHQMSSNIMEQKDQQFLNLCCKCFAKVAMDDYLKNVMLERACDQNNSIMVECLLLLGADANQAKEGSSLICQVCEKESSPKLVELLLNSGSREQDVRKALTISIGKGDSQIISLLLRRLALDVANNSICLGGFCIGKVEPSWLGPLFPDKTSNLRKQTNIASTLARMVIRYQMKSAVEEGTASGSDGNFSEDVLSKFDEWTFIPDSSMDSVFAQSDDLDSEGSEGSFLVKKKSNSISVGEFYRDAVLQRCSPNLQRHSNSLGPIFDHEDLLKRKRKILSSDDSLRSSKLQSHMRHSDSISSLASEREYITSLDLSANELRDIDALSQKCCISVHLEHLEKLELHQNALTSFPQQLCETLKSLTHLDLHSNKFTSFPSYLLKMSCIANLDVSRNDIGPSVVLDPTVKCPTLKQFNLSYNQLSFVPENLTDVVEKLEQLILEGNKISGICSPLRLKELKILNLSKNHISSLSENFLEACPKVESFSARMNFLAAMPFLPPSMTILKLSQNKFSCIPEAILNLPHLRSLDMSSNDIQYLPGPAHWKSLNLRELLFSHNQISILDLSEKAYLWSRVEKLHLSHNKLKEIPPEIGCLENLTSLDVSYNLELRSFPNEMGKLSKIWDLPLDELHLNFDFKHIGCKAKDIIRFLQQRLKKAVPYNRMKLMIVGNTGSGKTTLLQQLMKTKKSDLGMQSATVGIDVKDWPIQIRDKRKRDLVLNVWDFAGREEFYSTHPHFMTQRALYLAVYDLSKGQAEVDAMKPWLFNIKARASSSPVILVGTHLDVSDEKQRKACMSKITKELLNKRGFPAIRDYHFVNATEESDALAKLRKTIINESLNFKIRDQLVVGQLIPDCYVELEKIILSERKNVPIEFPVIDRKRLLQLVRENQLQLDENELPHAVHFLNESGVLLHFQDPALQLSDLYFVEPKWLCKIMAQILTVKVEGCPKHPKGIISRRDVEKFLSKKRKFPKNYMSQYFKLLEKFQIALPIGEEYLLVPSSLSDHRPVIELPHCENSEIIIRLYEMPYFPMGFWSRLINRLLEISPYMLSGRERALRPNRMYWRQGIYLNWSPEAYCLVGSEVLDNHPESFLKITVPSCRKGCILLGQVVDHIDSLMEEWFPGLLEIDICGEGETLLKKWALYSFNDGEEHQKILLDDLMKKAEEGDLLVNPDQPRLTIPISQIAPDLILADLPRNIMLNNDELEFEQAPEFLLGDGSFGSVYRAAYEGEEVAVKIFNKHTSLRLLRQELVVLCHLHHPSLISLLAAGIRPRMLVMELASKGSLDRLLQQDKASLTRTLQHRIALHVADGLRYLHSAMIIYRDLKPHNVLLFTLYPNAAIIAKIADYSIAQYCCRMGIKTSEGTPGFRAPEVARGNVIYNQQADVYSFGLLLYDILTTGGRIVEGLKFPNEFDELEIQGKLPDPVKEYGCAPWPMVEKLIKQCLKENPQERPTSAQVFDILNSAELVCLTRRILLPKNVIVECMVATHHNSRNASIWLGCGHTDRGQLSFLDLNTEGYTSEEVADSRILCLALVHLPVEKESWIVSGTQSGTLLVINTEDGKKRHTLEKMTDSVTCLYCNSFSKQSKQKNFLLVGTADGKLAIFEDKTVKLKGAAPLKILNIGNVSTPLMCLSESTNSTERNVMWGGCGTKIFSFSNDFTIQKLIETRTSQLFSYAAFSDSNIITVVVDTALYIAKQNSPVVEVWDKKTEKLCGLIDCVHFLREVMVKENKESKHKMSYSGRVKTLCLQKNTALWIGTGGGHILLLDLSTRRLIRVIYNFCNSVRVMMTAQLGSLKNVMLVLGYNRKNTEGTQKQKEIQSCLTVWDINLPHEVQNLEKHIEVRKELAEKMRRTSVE
50 mM Tris pH 7.5, 10 mM MgCl2, 1 mM EGTA, 0.01% Brij-35, 2 mM DTT, 5 nM LRRK2, 134 μM ATP, 60 minute reaction time, 23° C. reaction temperature, and 10 μL total reaction volume.
1×TR-FRET dilution buffer, 10 mM EDTA, 2 nM antibody, 23° C. reaction temperature, and 10 μL total reaction volume.
Compound solutions were prepared by initially diluting to 1 mM with DMSO. 35 μL of reference compound solution, 35 μL of test compound solution, and 35 μL HPE were successively added to the source plate (384-well assay plate, Labcyte). The plates were centrifuged at 2500 rpm for 1 minute and sealed in foil. POD was used to perform a 3.162 fold serial dilution and 100 nL of reference compound solution, test compound solution, HPE and ZPE were transferred to assay plates. The assay plate was centrifuged at 2500 rpm for 1 minute, and sealed with foil.
To perform the enzyme reaction, 5 μL of LRRKtide substrate and kinase mixture in assay buffer was added to all wells of the assay plate. The plate was centrifuged to concentrate the mixture at the bottom of the wells. The assay plate was incubated at 23° C. for 20 minutes. Following incubation, 5 μL of 2×ATP in assay buffer was added to each well, and plates were centrifuged to concentrate the mixture at the bottom of the wells. The plate was incubated at 23° C. for 60 minutes.
To perform the detection of the reaction, EDTA completely mixed in TR-FRET dilution buffer was added to antibody reagent. 10 μL of detection reagent was added to all wells of each well of the assay-plate and the plate was centrifuged to concentrate the mixture at the bottom of the wells. The plate was then incubated at 23° C. for 60 minutes. Plates were read on Perkin Elmer Envision 2104 instrument in TR-FRET mode using a 340 nm excitation filter, 520 nm fluorescence emission filter, and 490 or 495 nm terbium emission filter.
B-2, C2, and D-4 respectively.
Molecule `Cc1nn(C(C)(C)C#N)cc1Nc1ncc(C(F)(F)F)c(C2(F)CC2)n1` [Compound A-38, 2-(4-((4-(1-fluorocyclopropyl)-5-(trifluoromethyl)pyrimidin-2-yl)amino)-3-methyl-1H-pyrazol-1-yl)-2-methylpropanenitrile] returned a half-inhibitory concentration (IC50) greater than 60 nM.

In the case of `Cc1nn(C(C)(C)c2cn(C)nn2)cc1Nc1ncc(C(F)(F)F)c(C2CC2)n1` [Compound A-39, 4-cyclopropyl-N-(3-methyl-1-(2-(1-methyl-1H-1,2,3-triazol-4-yl)propan-2-yl)-1H-pyrazol-4-yl)-5-(trifluoromethyl)pyrimidin-2-amine], the IC50 is less than 30 nM.

With `Cc1nn(C(C)(C)c2cnn(C)n2)cc1Nc1ncc(C(F)(F)F)c(C2CC2)n1` [Compound A-40, 4-cyclopropyl-N-(3-methyl-1-(2-(2-methyl-2H-1,2,3-triazol-4-yl)propan-2-yl)-1H-pyrazol-4-yl)-5-(trifluoromethyl)pyrimidin-2-amine], the half-inhibitory concentration (IC50) is less than 30 nM.

For the molecule `Cc1nn(C2(c3ncn(C)n3)CCC2)cc1Nc1ncc(C(F)(F)F)c(C2CC2)n1` [Compound A-41, 4-cyclopropyl-N-[3-methyl-1-[1-(1-methyl-1,2,4-triazol-3-yl)cyclobutyl]pyrazol-4-yl]-5-(trifluoromethyl)pyrimidin-2-amine], the IC50 was less than 30 nM.

`Cc1nn(C2(c3ncnn3C)CCC2)cc1Nc1ncc(C(F)(F)F)c(C2CC2)n1` [Compound A-42, 4-cyclopropyl-N-[3-methyl-1-[1-(2-methyl-1,2,4-triazol-3-yl)cyclobutyl]pyrazol-4-yl]-5-(trifluoromethyl)pyrimidin-2-amine] came in with an IC50 greater than 60 nM.

For `Cc1c(Nc2ncc(Cl)c(C3CC3)n2)cnn1C(CF)CF` [Compound A-43, 5-chloro-4-cyclopropyl-N-[1-[2-fluoro-1-(fluoromethyl)ethyl]-5-methyl-pyrazol-4-yl]pyrimidin-2-amine], the concentration for half-maximal inhibition (IC50) is less than 30 nM.

As for `Cc1nn(C(CF)CF)cc1Nc1ncc(Cl)c(C2CC2)n1` [Compound A-44, 5-chloro-4-cyclopropyl-N-[1-[2-fluoro-1-(fluoromethyl)ethyl]-3-methyl-pyrazol-4-yl]pyrimidin-2-amine], the IC50 was less than 30 nM.

On to `FCC(CF)n1ncc(Nc2ncc(C(F)(F)F)c(C3CC3)n2)c1Cl` [Compound A-45, N-[5-chloro-1-[2-fluoro-1-(fluoromethyl)ethyl]pyrazol-4-yl]-4-cyclopropyl-5-(trifluoromethyl)pyrimidin-2-amine], for which the half-inhibitory concentration (IC50) was less than 30 nM.

On to `FCC(CF)n1cc(Nc2ncc(C(F)(F)F)c(C3CC3)n2)c(Cl)n1` [Compound A-46, N-[3-chloro-1-[2-fluoro-1-(fluoromethyl)ethyl]pyrazol-4-yl]-4-cyclopropyl-5-(trifluoromethyl)pyrimidin-2-amine], for which the IC50 was less than 30 nM.

Consider `Cc1nn(C2(C#N)CC2)cc1Nc1ncc(C(F)(F)F)c(C2CC2)n1` [Compound A-47, 1-[4-[[4-cyclopropyl-5-(trifluoromethyl)pyrimidin-2-yl]amino]-3-methyl-pyrazol-1-yl]cyclopropanecarbonitrile], for which the IC50 was less than 30 nM.

`F[C@H]1CN(C2COC2)CC[C@@H]1n1ncc(Nc2ncc(C(F)(F)F)c(C3CC3)n2)c1Cl` [Compound A-48, N-(5-chloro-1-((3S,4S)-3-fluoro-1-(oxetan-3-yl)piperidin-4-yl)-1H-pyrazol-4-yl)-4-cyclopropyl-5-(trifluoromethyl)pyrimidin-2-amine]: the IC50 is less than 30 nM.

Consider `CCn1cnc(C(C)(C)n2cc(Nc3ncc(C(F)(F)F)c(C4CC4)n3)c(C)n2)n1` [Compound A-51, 4-cyclopropyl-N-(1-(2-(1-ethyl-1H-1,2,4-triazol-3-yl)propan-2-yl)-3-methyl-1H-pyrazol-4-yl)-5-(trifluoromethyl)pyrimidin-2-amine], for which the half-maximal inhibitory concentration (IC50) was less than 30 nM.

`Cc1nn(C2(c3ncn(C)n3)CC2)cc1Nc1ncc(C(F)(F)F)c(C2CC2)n1` [Compound A-52, 4-cyclopropyl-N-[3-methyl-1-[1-(1-methyl-1,2,4-triazol-3-yl)cyclopropyl]pyrazol-4-yl]-5-(trifluoromethyl)pyrimidin-2-amine] yielded a half-inhibitory concentration (IC50) greater than 60 nM.

`Cc1nn(C(C)(C)c2ncn(C)n2)cc1Nc1ncc(Br)c(C2CC2)n1` [Compound A-53, 5-bromo-4-cyclopropyl-N-(3-methyl-1-(2-(1-methyl-1H-1,2,4-triazol-3-yl)propan-2-yl)-1H-pyrazol-4-yl)pyrimidin-2-amine]: the IC50 is less than 30 nM.

As for `Cc1c(Nc2ncc(C(F)(F)F)c(C3CC3)n2)cnn1Cc1ccn(C)n1` [Compound A-54, 4-cyclopropyl-N-[5-methyl-1-[(1-methylpyrazol-3-yl)methyl]pyrazol-4-yl]-5-(trifluoromethyl)pyrimidin-2-amine], the IC50 is less than 30 nM.

In turn, `Cc1nn(Cc2ccn(C)n2)cc1Nc1ncc(C(F)(F)F)c(C2CC2)n1` [Compound A-55, 4-cyclopropyl-N-(3-methyl-1-((1-methyl-1H-pyrazol-3-yl)methyl)-1H-pyrazol-4-yl)-5-(trifluoromethyl)pyrimidin-2-amine] registered a half-inhibitory concentration (IC50) of less than 30 nM.

`Cc1nn(C(C)(C)c2cn(C)cn2)cc1Nc1ncc(C(F)(F)F)c(C2CC2)n1` [Compound A-56, 4-cyclopropyl-N-(3-methyl-1-(2-(1-methyl-1H-imidazol-4-yl)propan-2-yl)-1H-pyrazol-4-yl)-5-(trifluoromethyl)pyrimidin-2-amine] came in with a concentration for half-maximal inhibition (IC50) of less than 30 nM.

As to `CC(C)(O)Cn1ncc(Nc2ncc(C(F)(F)F)c(C3CC3)n2)c1Cl` [Compound A-57, 1-[5-chloro-4-[[4-cyclopropyl-5-(trifluoromethyl)pyrimidin-2-yl]amino]pyrazol-1-yl]-2-methyl-propan-2-ol], the half-maximal inhibitory concentration (IC50) is greater than 60 nM.

In turn, `Cc1nn(C(C)(C)c2nc[nH]n2)cc1Nc1ncc(C(F)(F)F)c(C2CC2)n1` [Compound A-58, N-(1-(2-(1H-1,2,4-triazol-3-yl)propan-2-yl)-3-methyl-1H-pyrazol-4-yl)-4-cyclopropyl-5-(trifluoromethyl)pyrimidin-2-amine] registered an IC50 of less than 30 nM.

`FC(F)(F)c1cnc(Nc2cnn(CC3(CN4CCOCC4)CC3)c2Cl)nc1C1CC1` [Compound A-63, N-[5-chloro-1-[[1-(morpholinomethyl)cyclopropyl]methyl]pyrazol-4-yl]-4-cyclopropyl-5-(trifluoromethyl)pyrimidin-2-amine] returned an IC50 of 30 to 60 nM.

With `Cn1cnc(C(C)(C)n2cc(Nc3ncc(C(F)(F)F)c(C4CC4)n3)c(CO)n2)n1` [Compound A-66], the concentration for half-maximal inhibition (IC50) is greater than 60 nM.

On to `Cc1nn(C(C)(C)c2ccn[nH]2)cc1Nc1ncc(C(F)(F)F)c(C2CC2)n1` [Compound A-67, 4-cyclopropyl-N-[3-methyl-1-[1-methyl-1-(1H-pyrazol-5-yl)ethyl]pyrazol-4-yl]-5-(trifluoromethyl)pyrimidin-2-amine], for which the half-inhibitory concentration (IC50) was less than 30 nM.

With `Cc1c(Nc2ncc(C(F)(F)F)c(C3CC3)n2)cnn1[C@H]1CC2C(C1)[C@H]2c1ncnn1C` (stereo partly drawn) [Compound A-68, 4-cyclopropyl-N-(5-methyl-1-((1R,3s,5S,6r)-6-(1-methyl-1H-1,2,4-triazol-5-yl)bicyclo[3.1.0]hexan-3-yl)-1H-pyrazol-4-yl)-5-(trifluoromethyl)pyrimidin-2-amine], the IC50 was less than 30 nM.
